# Starred links: 1 amine or outer side, 2 acyl side, 3 side chain; linkers in the order of their positions; H or OH if unused. Positions of bridges follow the written chain, without caps; N, C: chain ends. Non-standard residues stand in square brackets, D forms with d. Residues, ends and D or L forms follow the SMILES beside them. *: point of attachment. Phe(3,4,5-F3) = N[C@@H](Cc1cc(F)c(F)c(F)c1)C(=O)O; Phe(Nα-CONH2) = NC(=O)N[C@@H](Cc1ccccc1)C(=O)*; X7 = CC(=O)NCS(=O)(=O)C[C@H](N[*:1])C(=O)[*:2]; Phe(4-F) = N[C@@H](Cc1ccc(F)cc1)C(=O)O; Bta = N[C@@H](Cc1csc2ccccc12)C(=O)O; Hyp = O=C(O)[C@@H]1C[C@@H](O)CN1; d(hLeu) = CC(C)CC[C@@H](N)C(=O)O; Tic = O=C(O)[C@@H]1Cc2ccccc2CN1; dCha = N[C@H](CC1CCCCC1)C(=O)O; NMeA = CN[C@@H](C)C(=O)O; Nle = CCCC[C@H](N)C(=O)O; Orn = NCCC[C@H](N)C(=O)O; CO = O=C([*:1])[*:2]; NHPh = c1ccc(N*)cc1
# Target: T1, human C5aR(CD88) (Homo sapiens, UniProt P21730)
# T1 construct: expressed in transfected cells; host or cells: rat basophilic leukemia cells (RBL)
# T1 sequence (P21730 1-350): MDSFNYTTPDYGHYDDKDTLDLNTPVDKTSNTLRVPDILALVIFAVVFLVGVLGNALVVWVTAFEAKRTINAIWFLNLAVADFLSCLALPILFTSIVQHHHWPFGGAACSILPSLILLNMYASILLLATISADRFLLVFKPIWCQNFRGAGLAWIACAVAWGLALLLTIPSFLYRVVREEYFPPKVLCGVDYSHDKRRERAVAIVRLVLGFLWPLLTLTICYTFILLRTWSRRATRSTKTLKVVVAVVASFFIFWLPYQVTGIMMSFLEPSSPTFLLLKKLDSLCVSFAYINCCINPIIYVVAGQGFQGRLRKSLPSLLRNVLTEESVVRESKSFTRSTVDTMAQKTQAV
# Assay: Determination of the IC50 value in an enzyme release assay (functional assay, antagonistic activity)
# Format: cell-based
# Conditions: activity (group)
row,Structure (SMILES),IC50 [µM]
1,"CC(=O)N[C@@H](Cc1ccccc1)C(=O)N[C@@H](CCCN)C(=O)N1CCC[C@H]1C(=O)N[C@H](CCC(C)C)C(=O)N[C@@H](Cc1ccc(F)cc1)C(=O)N[C@@H](Cc1ccccc1)C(N)=O [Compound 302, Ac-Phe-Orn-Pro-hle-Pff-Phe-NH2] (Ac-F[Orn]P[d(hLeu)][Phe(4-F)]F-NH2)",0.05 to 0.2

# Same assay, conditions: antagonistic activity; IC50 group in enzyme release assay, RBL cells expressing human C5aR(CD88); read-out: activity (group)
row,Structure (SMILES),IC50 [µM]
1,"CC(=O)N[C@@H](Cc1ccccc1)C(=O)N[C@@H](CCCN)C(=O)N1CCC[C@H]1C(=O)N[C@H](CCC(C)C)C(=O)N[C@@H](Cc1csc2ccccc12)C(=O)N[C@@H](Cc1ccccc1)C(N)=O [Compound 280, Ac-Phe-Orn-Pro-hle-Bta-Phe-NH2] (Ac-F[Orn]P[d(hLeu)][Bta]F-NH2)",0.02 to 0.05
2,"CC(=O)NCS(=O)(=O)C[C@H](NC(=O)[C@H](Cc1ccccc1)NC(C)=O)C(=O)N1CCC[C@H]1C(=O)N[C@H](CC1CCCCC1)C(=O)N[C@@H](Cc1csc2ccccc12)C(=O)N[C@@H](Cc1ccccc1)C(N)=O [Compound 218, Ac-Phe-Eep-Pro-cha-Bta-Phe-NH2] (Ac-F[X7]P[dCha][Bta]F-NH2)",0.05 to 0.2
3,"NCCC[C@H](NC(=O)[C@H](Cc1ccccc1)NC(=O)Nc1ccccc1)C(=O)N1CCC[C@H]1C(=O)N[C@H](CC1CCCCC1)C(=O)N[C@@H](Cc1c[nH]c2ccccc12)C(=O)N[C@@H](Cc1ccccc1)C(N)=O [Compound 85, Ph-NH—CO-Phe-Orn-Pro-cha-Trp-Phe-NH2] ({NHPh-CO}-F[Orn]P[dCha]WF-NH2)",0.05 to 0.2
4,"CC(=O)N[C@@H](Cc1ccccc1)C(=O)N[C@@H](CO)C(=O)N1CCC[C@H]1C(=O)N[C@H](CC1CCCCC1)C(=O)N[C@@H](Cc1c[nH]c2ccccc12)C(=O)N[C@@H](Cc1ccccc1)C(N)=O [Compound 90, Ac-Phe-Ser-Pro-cha-Trp-Phe-NH2] (Ac-FSP[dCha]WF-NH2)",0.2 to 2
5,"NCCC[C@H](NC(=O)[C@H](Cc1ccccc1)NC(N)=O)C(=O)N1CCC[C@H]1C(=O)N[C@H](CC1CCCCC1)C(=O)N[C@@H](Cc1csc2ccccc12)C(=O)N[C@@H](Cc1ccccc1)C(N)=O [Compound 128, H2N—CO-Phe-Orn-Pro-cha-Bta-Phe-NH2] ({Phe(Nα-CONH2)}-[Orn]P[dCha][Bta]F-NH2)",0.02 to 0.05
6,"CCSC[C@@H]1NC(=O)[C@H](Cc2c[nH]c3ccccc23)NC(=O)[C@@H](CC2CCCCC2)NC(=O)[C@@H]2CCCN2C(=O)[C@@H](NC(=O)[C@H](Cc2ccccc2)NC(C)=O)CCCNC1=O [Compound 34, Ac-Phe-[Orn-Pro-cha-Trp-Ebd]] (Ac-F[Orn]P[dCha]WC(Et); lactam 2-C)",0.02 to 0.05
7,"CCCC[C@@H]1NC(=O)[C@H](Cc2ccc(F)cc2)NC(=O)[C@@H](CCC(C)C)NC(=O)[C@@H]2CCCN2C(=O)[C@@H](NC(=O)[C@@H](N)Cc2ccccc2)CCCNC1=O [Compound 379, H-Phe-[Orn-Pro-hle-Pff-Nle]] (H-F[Orn]P[d(hLeu)][Phe(4-F)][Nle]; lactam 2-C)",0.05 to 0.2
8,"CC(=O)N[C@@H](Cc1ccccc1)C(=O)N[C@@H](CCCN)C(=O)N1CCC[C@H]1C(=O)N[C@H](CCC(C)C)C(=O)N[C@@H](Cc1cc(F)c(F)c(F)c1)C(=O)N[C@@H](Cc1ccccc1)C(N)=O [Compound 305, Ac-Phe-Orn-Pro-hle-Tff-Phe-NH2] (Ac-F[Orn]P[d(hLeu)][Phe(3,4,5-F3)]F-NH2)",0.05 to 0.2
9,"CC(=O)N[C@@H](Cc1ccccc1)C(=O)N[C@@H](CCCN)C(=O)N1Cc2ccccc2C[C@H]1C(=O)N[C@H](CC1CCCCC1)C(=O)N[C@@H](Cc1c[nH]c2ccccc12)C(=O)N[C@@H](Cc1ccccc1)C(=O)O [Compound 116, Ac-Phe-Orn-Tic-cha-Trp-Phe-OH] (Ac-F[Orn][Tic][dCha]WF-OH)",0.2 to 2
10,"CCCC[C@@H]1NC(=O)[C@H](Cc2ccc(F)cc2)NC(=O)[C@@H](CCC(C)C)NC(=O)[C@@H]2C[C@@H](O)CN2C(=O)[C@@H](NC(=O)[C@H](Cc2ccccc2)NC(C)=O)CCCNC1=O [Compound 179, Ac-Phe-[Orn-Hyp-hle-Pff-Nle]] (Ac-F[Orn][Hyp][d(hLeu)][Phe(4-F)][Nle]; lactam 2-C)",0.05 to 0.2
11,"CC(=O)N[C@@H](Cc1ccccc1)C(=O)N[C@@H](CCCN)C(=O)N(C)[C@@H](C)C(=O)N[C@H](CC1CCCCC1)C(=O)N[C@@H](Cc1csc2ccccc12)C(=O)N[C@@H](Cc1ccccc1)C(N)=O [Compound 246, Ac-Phe-Orn-NMA-cha-Bta-Phe-NH2] (Ac-F[Orn][NMeA][dCha][Bta]F-NH2)",0.05 to 0.2

# Same assay, conditions: functional assay of example 11; noteworthy = IC50 less than 200 nM
row,Structure (SMILES),inhibitory activity (in words)
1,"CCSC[C@@H]1NC(=O)[C@H](Cc2c[nH]c3ccccc23)NC(=O)[C@@H](CC2CCCCC2)NC(=O)[C@@H]2CCCN2C(=O)[C@@H](NC(=O)[C@H](Cc2ccccc2)NC(C)=O)CCCNC1=O [Compound 34, Ac-Phe-[Orn-Pro-cha-Trp-Ebd]] (Ac-F[Orn]P[dCha]WC(Et); lactam 2-C)",without significant loss of activity

# Same assay, conditions: functional assay of example 11; noteworthy = IC50 less than 200 nM; listed as Ac-Phe-[Orn-Pro-cha-Trp-Ebd]
row,Structure (SMILES),inhibitory activity (in words)
1,"CCSC[C@@H]1NC(=O)[C@H](Cc2c[nH]c3ccccc23)NC(=O)[C@@H](CC2CCCCC2)NC(=O)[C@@H]2CCCN2C(=O)[C@@H](NC(=O)[C@H](Cc2ccccc2)NC(C)=O)CCCNC1=O [Compound 34, Ac-Phe-[Orn-Pro-cha-Trp-Ebd]] (Ac-F[Orn]P[dCha]WC(Et); lactam 2-C)",noteworthy inhibitory activity

# Source: patent publication US20080161232A1, “C5a Receptor Antagonist” (JERINI AG, priority 2005, published 2008)
